According to patent US20240294522A1 (Lead Discovery Center GmbH, priority 2021, published 2024):

Legend:
GRK5 = target: T1, GRK5 (Homo sapiens, UniProt P34947); assay: Lance Kinase Activity Assay, GRK5; details: biochemical Lance kinase activity assay; class symbols A-F; read-out: GRK5 LANCE Assay (IC-50)
T1 construct: purchased Thermo Scientific
Method in brief: (§1)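 IC50s from sigmoidal dose-response over 0.0025-10 μM compound, with phosphorylated ULight substrate detected by Eu anti-phospho antibody FRET after EDTA quench.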

GRK2 = target: T2, GRK2 (Homo sapiens, UniProt P25098); assay: Lance Kinase Activity Assay, GRK2; details: biochemical Lance kinase activity assay; class symbols A-F; read-out: GRK2 LANCE Assay (IC-50)
T2 construct: purchased Thermo Scientific
T2 sequence (P25098 1-689): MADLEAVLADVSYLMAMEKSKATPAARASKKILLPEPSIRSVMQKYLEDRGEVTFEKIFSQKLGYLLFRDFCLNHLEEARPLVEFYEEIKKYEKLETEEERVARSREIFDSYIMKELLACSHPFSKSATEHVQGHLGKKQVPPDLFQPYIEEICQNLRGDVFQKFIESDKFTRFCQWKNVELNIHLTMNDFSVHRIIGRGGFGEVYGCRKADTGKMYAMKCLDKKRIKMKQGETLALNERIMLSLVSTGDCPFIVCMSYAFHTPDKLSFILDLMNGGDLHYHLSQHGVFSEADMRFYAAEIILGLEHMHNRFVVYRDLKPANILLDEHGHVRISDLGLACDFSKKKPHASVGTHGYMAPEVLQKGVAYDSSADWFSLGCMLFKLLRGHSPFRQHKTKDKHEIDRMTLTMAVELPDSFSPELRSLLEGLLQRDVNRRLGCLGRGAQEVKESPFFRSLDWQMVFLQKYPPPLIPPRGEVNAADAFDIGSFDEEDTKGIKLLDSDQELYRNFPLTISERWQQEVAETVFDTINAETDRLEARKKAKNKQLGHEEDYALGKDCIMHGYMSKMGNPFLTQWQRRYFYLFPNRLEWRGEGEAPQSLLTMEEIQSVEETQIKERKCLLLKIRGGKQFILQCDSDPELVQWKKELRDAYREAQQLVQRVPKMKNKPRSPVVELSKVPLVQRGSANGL
Method in brief: as §1

T1 sequence (P34947 whole entry): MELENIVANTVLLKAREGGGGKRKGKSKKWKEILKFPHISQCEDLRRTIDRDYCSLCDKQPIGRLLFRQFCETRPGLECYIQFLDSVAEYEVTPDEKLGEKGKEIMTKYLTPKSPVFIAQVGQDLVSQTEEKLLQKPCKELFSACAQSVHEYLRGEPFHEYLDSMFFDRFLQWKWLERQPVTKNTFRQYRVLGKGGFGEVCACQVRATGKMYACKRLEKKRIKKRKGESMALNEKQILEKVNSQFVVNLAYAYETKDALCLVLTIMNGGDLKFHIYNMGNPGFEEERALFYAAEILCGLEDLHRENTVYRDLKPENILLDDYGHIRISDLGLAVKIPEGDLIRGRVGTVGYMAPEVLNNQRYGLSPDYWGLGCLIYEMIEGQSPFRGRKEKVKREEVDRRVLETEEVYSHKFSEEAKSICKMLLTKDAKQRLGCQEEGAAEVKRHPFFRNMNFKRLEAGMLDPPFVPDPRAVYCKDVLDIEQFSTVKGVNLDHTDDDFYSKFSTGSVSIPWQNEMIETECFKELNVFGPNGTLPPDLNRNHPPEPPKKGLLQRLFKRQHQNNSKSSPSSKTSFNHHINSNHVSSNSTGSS

Compound | IC50 (GRK5) [µM] | IC50 (GRK2) [µM]
COc1ccc([C@@H](C)NC(=O)/C(C#N)=C/c2c[nH]c3ncc(-c4cccc(OCCN(C)C)c4)cc23)cc1OC [Example 152] | ≤ 0.05 | 1 to 10
COc1ccc([C@@H](C)NC(=O)/C(C#N)=C/c2c[nH]c3ncc(-c4ccc(N5CCN(C)CC5)cc4OC)cc23)cc1OC [Example 153] | ≤ 0.05 | 0.5 to 1
COc1ccc([C@@H](C)NC(=O)/C(C#N)=C/c2c[nH]c3ncc(-c4ccc(OCCN(C)C)cc4)cc23)cc1OC [Example 154] | ≤ 0.05 | 0.5 to 1
COc1ccc([C@@H](C)NC(=O)/C(C#N)=C/c2c[nH]c3ncc(-c4cnn(C5COC5)c4)cc23)cc1OC [Example 155] | ≤ 0.05 | 1 to 10
COc1ccc([C@@H](C)NC(=O)/C(C#N)=C/c2c[nH]c3ncc(C4=CCCCC4)cc23)cc1OC [Example 156, (R,E)-2-cyano-3-(5-(cyclohex-1-en-1-yl)-1H-pyrrolo[2,3-b]pyridin-3-yl)-N-(1-(3,4-dimethoxyphenyl)ethyl)acrylamide] | 0.1 to 0.5 | > 10
COc1ccc([C@@H](C)NC(=O)/C(C#N)=C/c2c[nH]c3ncc(-c4cnn(CC(C)O)c4)cc23)cc1OC (some centres unmarked) [Example 157] | ≤ 0.05 | 1 to 10
COc1ccc([C@@H](C)NC(=O)/C(C#N)=C/c2c[nH]c3ncc(C4=CCCC4)cc23)cc1OC [Example 158, (R,E)-2-cyano-3-(5-(cyclopent-1-en-1-yl)-1H-pyrrolo[2,3-b]pyridin-3-yl)-N-(1-(3,4-dimethoxyphenyl)ethyl)acrylamide] | ≤ 0.05 | > 10
COc1ccc([C@@H](C)NC(=O)/C(C#N)=C/c2c[nH]c3ncc(-c4cnn(Cc5ccccc5)c4)cc23)cc1OC [Example 159] | 0.1 to 0.5 | > 10
COc1ccc([C@@H](C)NC(=O)/C(C#N)=C/c2c[nH]c3ncc(-c4cnn(CCN5CCOCC5)c4)cc23)cc1OC [Example 160] | ≤ 0.05 | 1 to 10
COc1ccc([C@@H](C)NC(=O)/C(C#N)=C/c2c[nH]c3ncc(-c4cnn(CC(C)C)c4)cc23)cc1OC [Example 161, (R,E)-2-cyano-N-(1-(3,4-dimethoxyphenyl)ethyl)-3-(5-(1-isobutyl-1H-pyrazol-4-yl)-1H-pyrrolo[2,3-b]pyridin-3-yl)acrylamide] | ≤ 0.05 | > 10
COc1ccc([C@@H](C)NC(=O)/C(C#N)=C/c2c[nH]c3ncc(-c4ccc5nc(C)cn5c4)cc23)cc1OC [Example 162] | ≤ 0.05 | 1 to 10
COc1ccc([C@@H](C)NC(=O)/C(C#N)=C/c2c[nH]c3ncc(-c4cn[nH]c4)cc23)cc1OC [Example 163] | ≤ 0.05 | 1 to 10
COc1ccc([C@@H](C)NC(=O)/C(C#N)=C/c2c[nH]c3ncc(-c4cnn(C)c4)cc23)cc1OC [Example 164] | ≤ 0.05 | 1 to 10
COc1ccc([C@@H](C)NC(=O)/C(C#N)=C/c2c[nH]c3ncc(-c4cnn(C5CCN(C(=O)OC(C)(C)C)CC5)c4)cc23)cc1OC [Example 165] | 0.05 to 0.1 | 1 to 10
COc1ccc([C@@H](C)NC(=O)/C(C#N)=C/c2c[nH]c3ncc(-c4cn(C)cn4)cc23)cc1OC [Example 166, (R,E)-2-cyano-N-(1-(3,4-dimethoxyphenyl)ethyl)-3-(5-(1-methyl-1H-imidazol-4-yl)-1H-pyrrolo[2,3-b]pyridin-3-yl)acrylamide] | ≤ 0.05 | 1 to 10
COc1ccc([C@@H](C)NC(=O)/C(C#N)=C/c2c[nH]c3ncc(-c4cnn5ccccc45)cc23)cc1OC [Example 167] | ≤ 0.05 | 1 to 10
COc1ccc([C@@H](C)NC(=O)/C(C#N)=C/c2c[nH]c3ncc(-c4cn(C)nc4C)cc23)cc1OC [Example 168, (R,E)-2-cyano-N-(1-(3,4-dimethoxyphenyl)ethyl)-3-(5-(1,3-dimethyl-1H-pyrazol-4-yl)-1H-pyrrolo[2,3-b]pyridin-3-yl)acrylamide] | ≤ 0.05 | 1 to 10
COc1ccc([C@@H](C)NC(=O)/C(C#N)=C/c2c[nH]c3nccc(-c4ccc(C5CCN(C)CC5)cc4)c23)cc1OC [Example 170] | ≤ 0.05 | 1 to 10
COc1ccc([C@@H](C)NC(=O)/C(C#N)=C/c2c[nH]c3nccc(-c4ccc(N5CCN(C)CC5)cc4)c23)cc1OC [Example 171, (R,E)-2-cyano-N-(1-(3,4-dimethoxyphenyl)ethyl)-3-(4-(4-(4-methylpiperazin-1-yl)phenyl)-1H-pyrrolo[2,3-b]pyridin-3-yl)acrylamide] | ≤ 0.05 | 1 to 10

Compound | IC50 (GRK5) [µM] | IC50 (GRK2) [µM]
COc1ccc([C@@H](C)NC(=O)/C(C#N)=C/c2c[nH]c3nccc(-c4cccc(N5CCN(C)CC5)c4)c23)cc1OC [Example 172, (R,E)-2-cyano-N-(1-(3,4-dimethoxyphenyl)ethyl)-3-(4-(3-(4-methylpiperazin-1-yl)phenyl)-1H-pyrrolo[2,3-b]pyridin-3-yl)acrylamide] | ≤ 0.05 | 1 to 10
COc1ccc([C@@H](C)NC(=O)/C(C#N)=C/c2c[nH]c3nccc(-c4ccc(CN5CCN(C)CC5)cc4)c23)cc1OC [Example 173, (R,E)-2-cyano-N-(1-(3,4-dimethoxyphenyl)ethyl)-3-(4-(4-((4-methylpiperazin-1-yl)methyl)phenyl)-1H-pyrrolo[2,3-b]pyridin-3-yl)acrylamide] | ≤ 0.05 | 1 to 10
COc1ccc([C@@H](C)NC(=O)/C(C#N)=C/c2c[nH]c3nccc(-c4ccccc4)c23)cc1OC [Example 175] | ≤ 0.05 | 1 to 10
COc1ccc([C@@H](C)NC(=O)/C(C#N)=C/c2c[nH]c3nccc(-c4cccc(CN(C)C)c4)c23)cc1OC [Example 176, (R,E)-2-cyano-N-(1-(3,4-dimethoxyphenyl)ethyl)-3-(4-(3-((dimethylamino)methyl)phenyl)-1H-pyrrolo[2,3-b]pyridin-3-yl)acrylamide] | ≤ 0.05 | 1 to 10
COc1ccc([C@@H](C)NC(=O)/C(C#N)=C/c2c[nH]c3nccc(-c4cc(F)cc(F)c4)c23)cc1OC [Example 178] | 0.1 to 0.5 | > 10
C[C@@H](NC(=O)/C(C#N)=C/c1c[nH]c2ncc(-c3ccccc3)cc12)c1ccc(F)cc1 [Example 179] | 0.1 to 0.5 | 1 to 10
C[C@@H](NC(=O)/C(C#N)=C/c1c[nH]c2ncc(-c3ccc(N4CCN(C)CC4)cc3)cc12)c1ccc(F)cc1 [Example 180] | 0.05 to 0.1 | 0.1 to 0.5
C[C@@H](NC(=O)/C(C#N)=C/c1c[nH]c2ncc(-c3cccc(N4CCN(C)CC4)c3)cc12)c1ccc(F)cc1 [Example 181, (R,E)-2-cyano-N-(1-(4-fluorophenyl)ethyl)-3-(5-(3-(4-methylpiperazin-1-yl)phenyl)-1H-pyrrolo[2,3-b]pyridin-3-yl)acrylamide] | ≤ 0.05 | 0.1 to 0.5
COc1ccc([C@@H](C)NC(=O)/C=C/c2c[nH]c3ncc(-c4ccc(N5CCN(C(C)=O)CC5)cc4)cc23)cc1OC [Example 182] | ≤ 0.05 | 0.1 to 0.5
COc1ccc([C@@H](C)NC(=O)/C=C/c2c[nH]c3ncc(-c4cccc(CN5CCN(C)CC5)c4)cc23)cc1OC [Example 183] | ≤ 0.05 | > 10
COc1ccc([C@@H](C)NC(=O)/C=C/c2c[nH]c3ncc(-c4ccc(CN(C)C)cc4)cc23)cc1OC [Example 184] | 0.05 to 0.1 | > 10
COc1ccc([C@@H](C)NC(=O)/C=C/c2c[nH]c3ncc(-c4cccc(N5CCN(C)CC5)c4)cc23)cc1OC [Example 185] | ≤ 0.05 | 1 to 10
COc1ccc([C@@H](C)NC(=O)/C=C/c2c[nH]c3ncc(-c4cccnc4)cc23)cc1OC [Example 186, (R,E)-N-(1-(3,4-dimethoxyphenyl)ethyl)-3-(5-(pyridin-3-yl)-1H-pyrrolo[2,3-b]pyridin-3-yl)acrylamide] | ≤ 0.05 | 1 to 10
COc1ccc([C@@H](C)NC(=O)/C=C/c2c[nH]c3ncc(-c4ccc(NS(C)(=O)=O)cc4)cc23)cc1OC [Example 187] | ≤ 0.05 | 1 to 10
COc1ccc([C@@H](C)NC(=O)/C=C/c2c[nH]c3ncc(-c4cccc(OCCCN(C)C)c4)cc23)cc1OC [Example 188] | ≤ 0.05 | 0.5 to 1
COc1ccc([C@@H](C)NC(=O)/C=C/c2c[nH]c3ncc(-c4cccc(C(N)=O)c4)cc23)cc1OC [Example 189] | ≤ 0.05 | 1 to 10
COc1ccc([C@@H](C)NC(=O)/C=C/c2c[nH]c3ncc(-c4cccc(CN(C)C)c4)cc23)cc1OC [Example 190] | ≤ 0.05 | 1 to 10
CC[S+]([O-])c1cccc(-c2cnc3[nH]cc(/C=C/C(=O)N[C@H](C)c4ccc(OC)c(OC)c4)c3c2)c1 (stereo partly drawn) [Example 191, (E)-N-((R)-1-(3,4-dimethoxyphenyl)ethyl)-3-(5-(3-(ethylsulfinyl)phenyl)-1H-pyrrolo[2,3-b]pyridin-3-yl)acrylamide] | ≤ 0.05 | 1 to 10
